Laboratory results: patent US10512641B2, “Chloroquine induction par-4 and treatment of cancer” (University of Kentucky Research Foundation, priority 2015, dated 2019)

What was measured:
Par-4 [1] = assay: Par-4 secretion in wild type or p53-null MEFs, Western blot; assay type: cell-based, mouse; conditions: CQ 25 μM, Arylquin-1, Nutlin-3a 10 μM, 24 h
Par-4 [2] = conditions: Burikhanov et al. (2014); cited from earlier work
Par-4 [3] = assay: ICC analysis of Par-4 localization in Rab8b coated vesicles; assay type: cell-based
Experimental: An immunocytochemical (ICC) analysis was performed to determine the localization of Par-4 in Rab8b coated vesicles.

Par-4 [4] = assay: BFA sensitivity of CQ-induced Par-4 in MEFs; assay type: cell-based, mouse; conditions: MEFs pre-treated with BFA 10 μg/ml 30 minutes, then CQ 50 μM 5 h
Source text: (§4) The CM and lysates were examined by Western blot analysis with the indicated antibodies.

Par-4 [5] = assay: Par-4 secretion in conditioned medium of MEFs, Western blot; assay type: cell-based, mouse; conditions: wild type (p53+/+) MEFs; CQ 1-100 μM, 24 h
Source text: (§1) The conditioned medium (CM), as well as the whole-cell lysates were subjected to Western blot analysis with the antibodies specific for Par-4, Collagen (Col1A1), albumin, or actin. Col1A1 served as a loading control for protein secretion, as it is generally unchanged in response to the treatments. The samples were also subjected to SDS/PAGE and Coomassie blue staining to determine albumin levels in serum from the CM as another loading control.

Par-4 [6] = assay: Par-4 secretion in conditioned medium of normal human cells, Western blot; assay type: cell-based; conditions: normal human PrSC, PrEC, HEL, HBEC; CQ 1-100 μM, 24 h
Source text: as §1

Par-4 [7] = assay: Par-4 secretion in conditioned medium of prostate and lung cancer cell lines, Western blot; assay type: cell-based, human; conditions: prostate cancer cells LNCaP, C4-2B, DU145, PC-3; CQ 1-100 μM, 24 h
Source text: as §1

cancer cells [8] = assay: Apoptosis (ICC for active caspase-3) of cells exposed to CQ-treated MEFs or their CM; assay type: cell-based, human
Experimental: After 24 h, the cells were subjected to immunocytochemistry (ICC) for active caspase-3 and apoptotic cells were scored under a fluorescent microscope.
After 24 h, the cells were scored for apoptosis.
A total of three independent experiments were performed; and approximately 500 cells were scored in each experiment for apoptosis under a fluorescent microscope.

LLC1 cells = assay: Apoptosis of LLC1 cells by CM from CQ-treated MEFs; assay type: cell-based, mouse; conditions: CQ 20 μM, 24 h; not with Par-4-/- MEFs
Experimental: After 24 h, the cells were scored for apoptosis. *P<0.0001 by the Student's t-test.

H460 or LLC1 cells = assay: Subcutaneous H460 or LLC1 tumor xenografts in nude mice; assay type: in vivo, mouse; conditions: LLC1- or H460-derived flank tumors, CQ 25 mg/kg IP once daily
UACA = UACA and NF-κB-regulated gene expression, Western blot; assay type: cell-based; conditions: for expression of UACA: 24 h
Source text: as §4

Par-4 [9] = assay: Par-4 mRNA by qRT-PCR in MEFs; assay type: cell-based, mouse; conditions: CQ 25 μM, 24 h, normalized to GAPDH
Source text: The data were normalized relative to a GAPDH control. (see FIG. 8C).

Par-4 [10] = assay: Par-4 secretion in Rab8b-null and Rab8b reconstituted MEFs; assay type: cell-based, mouse
Experimental: (§2) Testing was performed to determine whether the expression of Rab genes containing putative p53 binding sites in their promoter region were essential for Par-4 secretion.

Rab8b = Rab8b and Rab8a expression (protein, real-time PCR); assay type: cell-based
Experimental: as §2
The guardian of the genome, p53 binds to a consensus motif 5′-PuPuPuC4(A/T)(A/T)G7PyPyPy

p53 [11] = tested on: p53
p53 [12] = conditions: MEFs, CQ 25 μM, 24 h
A549 lung cancer cells = conditions: A549 cells, 0, 2, 4 Gy, CQ 10 μM or 20 μM
[13] = tested on: Mel 1617 and Mel 1617BR melanoma cancer cells; conditions: CQ 1 μM or 5 μM, 0 and 4 Gy
Par-4 [14] = assay: Par-4 in serum of renal cell carcinoma patients given HCQ, Western blot; assay type: in vivo, human
Experimental: Serum samples were collected from renal cell carcinoma patients who were given safe oral doses (400 mg daily for 2-weeks) of HCQ pre-operatively at the University of Pittsburgh, as part of a clinical trial in 2010-2011. Pre-HCQ treatment and post-HCQ treatment serum samples were collected and frozen. In 2013-2014, they were processed by Western blot analysis.
(§3) Aliquots of pre-HCQ or post-HCQ treatment serum samples from the patient were transferred to cancer cell cultures (20% final concentration). After 24 h, the cells were scored for apoptosis by ICC for active caspase-3. Fetal bovine serum (FBS, 10%) was used as an additional control. An asterisk (*) indicates statistical significance (P<0.001) by the Student's t-test. […] Importantly, apoptosis of cancer cells by post-treatment serum from the patient was neutralized by the Par-4 antibody (P) or GRP78 antibody (G), but not by control antibody (C) (FIG. 2E).

cancer cells [15] = assay: Ex vivo apoptosis of cancer cells by post-HCQ patient serum; assay type: cell-based, human; conditions: PC-3, H460, HOP92, H1299; 20% serum, 24 h; relative to pre-HCQ serum
Experimental: as §3

Par-4 [16] = assay: Par-4 secretion from MEFs treated with chloroquine, curcumin, ibuprofen or combinations; assay type: cell-based, mouse; conditions: 24 h
Experimental: To determine whether curcumin or ibuprofen enhanced the secretion of Par-4 in cells treated with chloroquine, MEFs were treated with chloroquine (25 μM), curcumin (5 μM and 10 μM) or ibuprofen (500 μM or 750 μM) or combinations of chloroquine and curcumin or ibuprofen for 24 hours at 37° C.
as §1, with “lysates,” for “lysates”

CN(C)c1ccc2cc(-c3ccccc3F)c(N)nc2c1 [Arylquin-1]
Par-4 secretion (Par-4 [1]): robust induction of Par-4 secretion
secretion of Par-4 from normal cells in mice (Par-4 [2]): can increase secretion of Par-4

C[C@H]1CCC/C=C/[C@@H]2C[C@H](O)C[C@H]2[C@H](O)/C=C/C(=O)O1 [BFA]
entry of Par-4 into Rab8b vesicles (Par-4 [3]; CQ-treated cells plus BFA): prevented Par-4 from entering the Rab8b vesicles
effect on CQ-induced Par-4 expression (Par-4 [4]): CQ-induced Par-4 expression was inhibited

CCN(CC)CCCC(C)Nc1ccnc2cc(Cl)ccc12 (stereo not drawn) [CQ, chloroquine diphosphate]
secretion of Par-4 in the CM (Par-4 [5]): dose-dependent secretion of Par-4
secretion of Par-4 in the CM (Par-4 [6]): dose-dependent secretion of Par-4
Par-4 secretion (Par-4 [7]): neither induced Par-4 secretion
apoptosis of Par-4-resistant cancer cells with CQ-treated Par-4+/+ MEFs (cancer cells [8]; DU145, A549 cells (internal control), CQ 20 μM): resistant to apoptosis
apoptosis of cancer cells co-cultured with CQ-treated Par-4+/+ MEFs (cancer cells [8]; PC-3, H460, H1299, HOP92, KP7B cells, CQ 20 μM, not with Par-4-/- MEFs): sensitive to apoptosis
cancer cell apoptosis by CM of CQ-treated Par-4+/+ MEFs (cancer cells [8]; inhibited by Par-4 antibody or GRP78 antibody): Cancer cell apoptosis was also induced
apoptosis of normal cells co-cultured with CQ-treated Par-4+/+ MEFs (cancer cells [8]; normal HEL cells, CQ 20 μM): not normal HEL cells
apoptosis of LLC1 cells by CM from CQ-treated Par-4+/+ MEFs (LLC1 cells): induced apoptosis of LLC1 cells
growth of subcutaneous tumor xenografts (tumor volume) (H460 or LLC1 cells): failed to inhibit the growth
expression of UACA (UACA; MEF and HEL, CQ 25 μM): inhibited the expression of UACA
UACA downregulation (UACA; cancer cells): failed to downregulate UACA
expression of UACA and NF-κB-regulated genes cIAP1 and XIAP (UACA; p53-dependent, wild type vs p53-/- MEFs, CQ 25 μM): inhibited the expression of UACA and NF-κB-regulated genes cIAP1 and XIAP
expression of UACA (UACA; p53 null MEFs, CQ 25 μM): not p53 null MEFs
Par-4 RNA level (Par-4 [9]): did not induce Par-4 at the RNA level
induction of Par-4 secretion (Par-4 [10]; Rab8b-null MEF cells (not Rab8a-null MEF cells)): failed to show induction of Par-4 secretion
Par-4 secretion (Par-4 [10]; Rab8b-null MEFs transfected with mouse Rab8b expression construct): induced Par-4 secretion in Rab8b reconstituted cells
Rab8b induction (Rab8b; cancer cells): not in cancer cells
Rab8b induction (Rab8b; normal human cells): induced Rab8b in normal human cells
Rab8b protein levels (Rab8b; p53 wild type cells): enhanced Rab8b protein levels
Rab8b mRNA (Rab8b; quantitative real-time PCR): induced Rab8b mRNA in a p53-dependent manner
Rab8a expression (Rab8b; wild type MEFs): not Rab8a expression
Rab8b expression (Rab8b; wild type MEFs): induced Rab8b expression
co-localization of Par-4 with Rab8b containing vesicles (Par-4 [3]; relative to vehicle): increase in the co-localization
p53-responsive genes p21 and PIG3 (p53 [11]; MEFs and normal mouse lung tissues): upregulation of p53-responsive genes p21 and PIG3
p53 induction (p53 [11]; cancer cells): neither induced p53
p53-dependent transcription (p53 [12]): increased p53-dependent transcription
inhibition of growth and proliferation, radiation plus CQ (A549 lung cancer cells): greater than additive effect
inhibition of growth and proliferation, CQ plus ionizing radiation [13]: greater than additive effect

CCN(CCO)CCCC(C)Nc1ccnc2cc(Cl)ccc12 (stereo not drawn) [HCQ, hydroxychloroquine]
induction of Par-4 in patient serum following HCQ treatment (Par-4 [14]; one renal cell carcinoma patient, HCQ 400 mg daily for 2 weeks): ~3 fold
Par-4 levels in patient serum (Par-4 [14]; renal cell carcinoma patients, HCQ 400 mg daily oral for 2 weeks, post vs pre treatment): elevated levels of Par-4 relative to pre-treatment levels
ex vivo apoptosis of cancer cells with post-HCQ treatment serum (cancer cells [15]): underwent apoptosis

COc1ccc(C2=N[C@@H](c3ccc(Cl)cc3)[C@@H](c3ccc(Cl)cc3)N2C(=O)N2CCNC(=O)C2)c(OC(C)C)c1 [Nutlin-3a]
Par-4 secretion (Par-4 [1]): induced Par-4 secretion in a p53-dependent manner
secretion of Par-4 from normal cells in mice (Par-4 [2]): can increase secretion of Par-4

O=C(Nc1cc(Cl)cc2c1[nH]c1cnccc12)c1cccnc1 [PS-1145]
apoptosis of A549 cells by CM from CQ-treated MEFs (cancer cells [8]; A549 cells pretreated with PS-1145 10 μM, 24 h): sensitized to apoptosis
secretion of Par-4 from normal cells in mice (Par-4 [2]): can increase secretion of Par-4

COc1cc(/C=C/C(=O)CC(=O)/C=C/c2ccc(O)c(OC)c2)ccc1O [curcumin]
Par-4 secretion (Par-4 [16]; curcumin alone 5 μM and 10 μM): enhances Par-4 secretion

CC(C)Cc1ccc(C(C)C(=O)O)cc1 (stereo not drawn) [ibuprofen]
secretion of Par-4 compared with chloroquine alone (Par-4 [16]; ibuprofen 750 μM with chloroquine 25 μM): significantly improves the secretion of Par-4
production or secretion of Par-4 (Par-4 [16]; ibuprofen alone 500 μM or 750 μM): does not enhance the production or secretion of Par-4
